Experimental data taken from ChEMBL document CHEMBL5653615 (J Biol Chem, 2013).

Key:
[1] = target: Hepatocyte growth factor receptor (Homo sapiens) (UniProt P08581); test: Inhibition of human c-MET at 500 nM by HotSpot assay relative to control
[2] = target: T1, Dual specificity tyrosine-phosphorylation-regulated kinase 4 (Homo sapiens) (UniProt Q9NR20); test: Inhibition of human DYRK4 at 500 nM by HotSpot assay relative to control
T1 sequence (whole entry): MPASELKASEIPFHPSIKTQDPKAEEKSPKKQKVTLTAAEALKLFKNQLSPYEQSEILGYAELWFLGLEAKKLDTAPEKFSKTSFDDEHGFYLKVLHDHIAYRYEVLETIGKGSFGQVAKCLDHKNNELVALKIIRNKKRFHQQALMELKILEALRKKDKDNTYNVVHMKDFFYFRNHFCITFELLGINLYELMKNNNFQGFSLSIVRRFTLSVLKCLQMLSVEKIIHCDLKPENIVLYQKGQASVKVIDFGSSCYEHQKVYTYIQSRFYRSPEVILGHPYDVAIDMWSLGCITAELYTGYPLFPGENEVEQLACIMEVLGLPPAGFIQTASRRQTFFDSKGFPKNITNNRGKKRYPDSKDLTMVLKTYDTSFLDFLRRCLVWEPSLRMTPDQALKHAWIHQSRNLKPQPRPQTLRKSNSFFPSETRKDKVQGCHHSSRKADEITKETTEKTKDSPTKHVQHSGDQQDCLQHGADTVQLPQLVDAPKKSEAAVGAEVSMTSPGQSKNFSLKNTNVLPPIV

[3] = target: Mitogen-activated protein kinase 3 (Homo sapiens) (UniProt P27361); test: Inhibition of human ERK1 at 500 nM by HotSpot assay relative to control
Chain of Mitogen-activated protein kinase 3 (Homo sapiens) (P27361 whole entry): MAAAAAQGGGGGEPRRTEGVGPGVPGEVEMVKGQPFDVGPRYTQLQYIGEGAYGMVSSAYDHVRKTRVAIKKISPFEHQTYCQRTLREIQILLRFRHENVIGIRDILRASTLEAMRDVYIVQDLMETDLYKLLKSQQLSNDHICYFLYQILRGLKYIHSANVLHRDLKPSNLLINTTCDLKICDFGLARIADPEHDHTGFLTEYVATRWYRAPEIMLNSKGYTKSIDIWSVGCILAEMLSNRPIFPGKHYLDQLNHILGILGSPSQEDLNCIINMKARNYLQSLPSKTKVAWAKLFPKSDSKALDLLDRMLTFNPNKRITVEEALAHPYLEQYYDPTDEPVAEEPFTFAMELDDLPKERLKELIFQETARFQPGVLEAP

[4] = target: Tyrosine-protein kinase Fes/Fps (Homo sapiens) (UniProt P07332); test: Inhibition of human FES at 500 nM by HotSpot assay relative to control
Chain of Tyrosine-protein kinase Fes/Fps (Homo sapiens) (P07332 whole entry): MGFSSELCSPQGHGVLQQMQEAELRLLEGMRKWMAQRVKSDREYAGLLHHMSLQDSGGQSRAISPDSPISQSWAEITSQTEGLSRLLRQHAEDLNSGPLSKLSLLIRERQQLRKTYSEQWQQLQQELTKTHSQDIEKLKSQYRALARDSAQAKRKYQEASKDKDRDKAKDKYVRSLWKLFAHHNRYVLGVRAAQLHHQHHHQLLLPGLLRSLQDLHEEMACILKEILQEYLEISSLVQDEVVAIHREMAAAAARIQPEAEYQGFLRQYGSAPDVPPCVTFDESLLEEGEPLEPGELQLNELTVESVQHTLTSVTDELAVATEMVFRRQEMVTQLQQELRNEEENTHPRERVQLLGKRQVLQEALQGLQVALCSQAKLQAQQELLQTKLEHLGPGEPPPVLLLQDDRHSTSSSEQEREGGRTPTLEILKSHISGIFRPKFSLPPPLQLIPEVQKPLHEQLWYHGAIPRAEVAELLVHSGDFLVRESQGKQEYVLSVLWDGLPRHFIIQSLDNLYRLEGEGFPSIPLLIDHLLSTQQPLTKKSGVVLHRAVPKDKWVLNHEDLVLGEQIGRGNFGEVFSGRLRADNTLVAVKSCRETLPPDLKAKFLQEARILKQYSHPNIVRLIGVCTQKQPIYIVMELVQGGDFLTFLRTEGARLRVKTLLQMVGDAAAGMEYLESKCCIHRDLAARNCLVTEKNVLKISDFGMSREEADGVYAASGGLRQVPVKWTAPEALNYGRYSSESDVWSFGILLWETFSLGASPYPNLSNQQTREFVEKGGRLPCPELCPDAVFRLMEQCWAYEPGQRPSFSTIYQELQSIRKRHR

[5] = target: T2, Tyrosine-protein kinase JAK3 (Homo sapiens) (UniProt P52333); test: Inhibition of human JAK3 at 500 nM by HotSpot assay relative to control
T2 sequence (whole entry): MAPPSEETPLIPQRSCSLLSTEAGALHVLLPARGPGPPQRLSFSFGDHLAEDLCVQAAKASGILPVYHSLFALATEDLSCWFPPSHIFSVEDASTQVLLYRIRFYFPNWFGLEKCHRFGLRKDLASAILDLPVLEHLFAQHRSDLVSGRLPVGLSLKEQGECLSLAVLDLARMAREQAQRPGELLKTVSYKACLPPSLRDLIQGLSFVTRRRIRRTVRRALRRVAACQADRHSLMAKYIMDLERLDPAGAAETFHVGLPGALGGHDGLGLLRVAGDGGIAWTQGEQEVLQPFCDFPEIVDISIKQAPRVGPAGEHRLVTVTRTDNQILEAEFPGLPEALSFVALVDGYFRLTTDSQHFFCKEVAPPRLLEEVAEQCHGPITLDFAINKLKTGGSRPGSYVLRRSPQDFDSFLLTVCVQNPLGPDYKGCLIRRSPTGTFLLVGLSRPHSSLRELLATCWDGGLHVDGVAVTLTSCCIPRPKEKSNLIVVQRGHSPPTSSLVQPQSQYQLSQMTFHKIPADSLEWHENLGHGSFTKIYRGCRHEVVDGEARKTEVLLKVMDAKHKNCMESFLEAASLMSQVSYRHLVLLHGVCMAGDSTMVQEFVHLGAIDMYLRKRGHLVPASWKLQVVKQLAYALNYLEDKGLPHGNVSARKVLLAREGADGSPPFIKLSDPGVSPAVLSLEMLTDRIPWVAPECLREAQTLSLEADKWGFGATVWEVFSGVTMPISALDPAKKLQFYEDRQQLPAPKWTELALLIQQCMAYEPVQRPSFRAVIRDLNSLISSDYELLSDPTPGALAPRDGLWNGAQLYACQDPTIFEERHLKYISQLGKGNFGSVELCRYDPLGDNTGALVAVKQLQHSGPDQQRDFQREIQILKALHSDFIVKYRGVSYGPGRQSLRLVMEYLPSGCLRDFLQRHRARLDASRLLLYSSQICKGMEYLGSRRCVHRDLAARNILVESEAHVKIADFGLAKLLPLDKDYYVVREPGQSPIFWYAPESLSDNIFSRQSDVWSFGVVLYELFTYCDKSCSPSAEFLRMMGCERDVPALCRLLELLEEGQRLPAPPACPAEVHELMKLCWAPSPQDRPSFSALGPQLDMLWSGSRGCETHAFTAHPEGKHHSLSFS

[6] = target: MAP kinase-activated protein kinase 5 (Homo sapiens) (UniProt Q8IW41); test: Inhibition of human MAPKAPK5 at 500 nM by HotSpot assay relative to control
Chain of MAP kinase-activated protein kinase 5 (Homo sapiens) (Q8IW41 whole entry): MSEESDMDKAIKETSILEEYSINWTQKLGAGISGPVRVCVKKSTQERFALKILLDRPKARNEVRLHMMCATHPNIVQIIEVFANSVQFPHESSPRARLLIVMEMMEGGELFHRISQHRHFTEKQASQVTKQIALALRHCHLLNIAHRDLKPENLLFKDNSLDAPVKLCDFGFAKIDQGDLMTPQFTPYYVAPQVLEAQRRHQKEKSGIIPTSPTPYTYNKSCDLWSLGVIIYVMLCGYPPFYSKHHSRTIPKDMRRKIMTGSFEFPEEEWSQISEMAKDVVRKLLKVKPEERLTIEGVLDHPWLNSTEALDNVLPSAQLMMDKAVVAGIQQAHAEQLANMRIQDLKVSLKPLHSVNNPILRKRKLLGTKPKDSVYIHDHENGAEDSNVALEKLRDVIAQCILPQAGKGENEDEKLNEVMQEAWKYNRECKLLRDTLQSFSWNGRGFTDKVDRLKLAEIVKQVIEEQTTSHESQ

[7] = target: Serine/threonine-protein kinase MRCK alpha (Homo sapiens) (UniProt Q5VT25); test: Inhibition of human CDC42BPA at 500 nM by HotSpot assay relative to control
[8] = target: Ribosomal protein S6 kinase beta-1 (Homo sapiens) (UniProt P23443); test: Inhibition of human RPS6KB1 at 500 nM by HotSpot assay relative to control
Chain of Ribosomal protein S6 kinase beta-1 (Homo sapiens) (P23443 whole entry, looked up): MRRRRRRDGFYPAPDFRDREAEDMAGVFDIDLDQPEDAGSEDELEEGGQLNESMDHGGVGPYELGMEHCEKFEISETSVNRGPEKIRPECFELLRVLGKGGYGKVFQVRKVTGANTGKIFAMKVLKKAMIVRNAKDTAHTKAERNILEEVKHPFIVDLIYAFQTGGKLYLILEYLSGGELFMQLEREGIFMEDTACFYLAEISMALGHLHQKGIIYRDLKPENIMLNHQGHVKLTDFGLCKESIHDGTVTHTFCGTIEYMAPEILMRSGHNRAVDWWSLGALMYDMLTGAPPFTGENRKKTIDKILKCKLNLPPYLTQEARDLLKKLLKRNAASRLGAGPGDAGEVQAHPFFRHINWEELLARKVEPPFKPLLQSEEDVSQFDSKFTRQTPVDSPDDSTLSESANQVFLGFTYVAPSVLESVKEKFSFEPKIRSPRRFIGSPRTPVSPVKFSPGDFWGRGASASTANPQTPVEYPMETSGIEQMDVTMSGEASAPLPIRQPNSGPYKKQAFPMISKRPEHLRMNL

[9] = target: T3, Protein kinase C epsilon type (Homo sapiens) (UniProt Q02156); test: Inhibition of human PKCepsilon at 500 nM by HotSpot assay relative to control
T3 sequence (whole entry): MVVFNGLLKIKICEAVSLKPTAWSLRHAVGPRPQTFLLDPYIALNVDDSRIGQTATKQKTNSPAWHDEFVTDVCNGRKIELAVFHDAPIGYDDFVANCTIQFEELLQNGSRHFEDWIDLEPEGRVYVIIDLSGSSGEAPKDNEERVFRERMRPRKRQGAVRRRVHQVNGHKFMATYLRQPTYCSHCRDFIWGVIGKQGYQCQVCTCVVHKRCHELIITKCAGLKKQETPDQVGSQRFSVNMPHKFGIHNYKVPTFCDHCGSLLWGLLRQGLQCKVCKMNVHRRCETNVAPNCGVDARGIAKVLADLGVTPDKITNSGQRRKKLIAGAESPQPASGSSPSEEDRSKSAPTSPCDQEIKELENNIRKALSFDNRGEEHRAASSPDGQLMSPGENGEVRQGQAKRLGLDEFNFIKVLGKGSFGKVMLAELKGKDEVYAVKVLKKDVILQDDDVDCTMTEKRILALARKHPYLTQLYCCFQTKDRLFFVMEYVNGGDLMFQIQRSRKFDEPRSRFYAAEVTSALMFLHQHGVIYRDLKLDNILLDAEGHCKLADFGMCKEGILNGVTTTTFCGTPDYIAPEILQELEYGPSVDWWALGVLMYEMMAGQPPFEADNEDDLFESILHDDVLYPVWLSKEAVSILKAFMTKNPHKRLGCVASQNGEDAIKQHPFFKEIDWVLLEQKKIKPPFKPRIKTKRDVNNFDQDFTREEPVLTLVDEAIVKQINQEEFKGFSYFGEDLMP

[10] = target: Ribosomal protein S6 kinase alpha-3 (Homo sapiens) (UniProt P51812); test: Inhibition of human RSK2 at 500 nM by HotSpot assay relative to control
Chain of Ribosomal protein S6 kinase alpha-3 (Homo sapiens) (P51812 whole entry): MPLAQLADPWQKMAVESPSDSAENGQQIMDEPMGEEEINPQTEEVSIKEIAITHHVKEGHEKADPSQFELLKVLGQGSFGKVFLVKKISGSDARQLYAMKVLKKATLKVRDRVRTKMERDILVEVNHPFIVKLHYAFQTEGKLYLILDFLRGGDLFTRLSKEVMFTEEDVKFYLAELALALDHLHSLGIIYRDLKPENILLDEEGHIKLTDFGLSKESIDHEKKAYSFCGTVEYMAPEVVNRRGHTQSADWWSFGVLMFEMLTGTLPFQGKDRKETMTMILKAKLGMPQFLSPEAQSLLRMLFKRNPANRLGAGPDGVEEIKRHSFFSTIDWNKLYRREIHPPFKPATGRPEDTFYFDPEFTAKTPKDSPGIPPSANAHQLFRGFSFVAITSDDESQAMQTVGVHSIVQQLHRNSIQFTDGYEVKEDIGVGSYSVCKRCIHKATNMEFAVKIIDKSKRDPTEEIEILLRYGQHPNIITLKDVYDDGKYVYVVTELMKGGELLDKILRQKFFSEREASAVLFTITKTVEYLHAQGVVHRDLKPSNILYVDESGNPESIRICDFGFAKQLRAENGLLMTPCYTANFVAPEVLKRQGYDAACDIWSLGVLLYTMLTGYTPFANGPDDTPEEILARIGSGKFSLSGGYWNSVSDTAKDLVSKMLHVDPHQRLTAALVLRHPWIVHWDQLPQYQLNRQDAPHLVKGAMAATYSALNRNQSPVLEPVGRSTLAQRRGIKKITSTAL

[11] = target: SRSF protein kinase 2 (Homo sapiens) (UniProt P78362); test: Inhibition of human SRPK2 at 500 nM by HotSpot assay relative to control
Chain of SRSF protein kinase 2 (Homo sapiens) (P78362 whole entry, looked up): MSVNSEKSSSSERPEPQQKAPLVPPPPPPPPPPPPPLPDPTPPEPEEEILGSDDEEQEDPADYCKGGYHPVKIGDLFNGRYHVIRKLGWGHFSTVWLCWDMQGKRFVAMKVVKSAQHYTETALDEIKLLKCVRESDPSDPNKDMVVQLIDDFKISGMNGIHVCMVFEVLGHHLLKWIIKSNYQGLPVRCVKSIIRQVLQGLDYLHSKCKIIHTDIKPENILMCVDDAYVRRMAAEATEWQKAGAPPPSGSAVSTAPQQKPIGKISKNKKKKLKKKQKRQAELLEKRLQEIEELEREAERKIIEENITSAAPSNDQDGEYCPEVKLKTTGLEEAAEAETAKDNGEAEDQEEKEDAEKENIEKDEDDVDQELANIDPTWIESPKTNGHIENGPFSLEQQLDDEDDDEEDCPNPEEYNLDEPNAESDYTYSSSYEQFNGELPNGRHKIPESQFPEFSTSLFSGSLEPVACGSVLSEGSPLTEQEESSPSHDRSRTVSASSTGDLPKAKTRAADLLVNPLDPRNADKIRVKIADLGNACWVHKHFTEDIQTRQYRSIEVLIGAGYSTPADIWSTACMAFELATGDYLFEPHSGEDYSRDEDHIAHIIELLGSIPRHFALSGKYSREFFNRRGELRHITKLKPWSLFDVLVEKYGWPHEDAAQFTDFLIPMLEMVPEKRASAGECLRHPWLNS

Chain of Hepatocyte growth factor receptor (Homo sapiens) (P08581 whole entry): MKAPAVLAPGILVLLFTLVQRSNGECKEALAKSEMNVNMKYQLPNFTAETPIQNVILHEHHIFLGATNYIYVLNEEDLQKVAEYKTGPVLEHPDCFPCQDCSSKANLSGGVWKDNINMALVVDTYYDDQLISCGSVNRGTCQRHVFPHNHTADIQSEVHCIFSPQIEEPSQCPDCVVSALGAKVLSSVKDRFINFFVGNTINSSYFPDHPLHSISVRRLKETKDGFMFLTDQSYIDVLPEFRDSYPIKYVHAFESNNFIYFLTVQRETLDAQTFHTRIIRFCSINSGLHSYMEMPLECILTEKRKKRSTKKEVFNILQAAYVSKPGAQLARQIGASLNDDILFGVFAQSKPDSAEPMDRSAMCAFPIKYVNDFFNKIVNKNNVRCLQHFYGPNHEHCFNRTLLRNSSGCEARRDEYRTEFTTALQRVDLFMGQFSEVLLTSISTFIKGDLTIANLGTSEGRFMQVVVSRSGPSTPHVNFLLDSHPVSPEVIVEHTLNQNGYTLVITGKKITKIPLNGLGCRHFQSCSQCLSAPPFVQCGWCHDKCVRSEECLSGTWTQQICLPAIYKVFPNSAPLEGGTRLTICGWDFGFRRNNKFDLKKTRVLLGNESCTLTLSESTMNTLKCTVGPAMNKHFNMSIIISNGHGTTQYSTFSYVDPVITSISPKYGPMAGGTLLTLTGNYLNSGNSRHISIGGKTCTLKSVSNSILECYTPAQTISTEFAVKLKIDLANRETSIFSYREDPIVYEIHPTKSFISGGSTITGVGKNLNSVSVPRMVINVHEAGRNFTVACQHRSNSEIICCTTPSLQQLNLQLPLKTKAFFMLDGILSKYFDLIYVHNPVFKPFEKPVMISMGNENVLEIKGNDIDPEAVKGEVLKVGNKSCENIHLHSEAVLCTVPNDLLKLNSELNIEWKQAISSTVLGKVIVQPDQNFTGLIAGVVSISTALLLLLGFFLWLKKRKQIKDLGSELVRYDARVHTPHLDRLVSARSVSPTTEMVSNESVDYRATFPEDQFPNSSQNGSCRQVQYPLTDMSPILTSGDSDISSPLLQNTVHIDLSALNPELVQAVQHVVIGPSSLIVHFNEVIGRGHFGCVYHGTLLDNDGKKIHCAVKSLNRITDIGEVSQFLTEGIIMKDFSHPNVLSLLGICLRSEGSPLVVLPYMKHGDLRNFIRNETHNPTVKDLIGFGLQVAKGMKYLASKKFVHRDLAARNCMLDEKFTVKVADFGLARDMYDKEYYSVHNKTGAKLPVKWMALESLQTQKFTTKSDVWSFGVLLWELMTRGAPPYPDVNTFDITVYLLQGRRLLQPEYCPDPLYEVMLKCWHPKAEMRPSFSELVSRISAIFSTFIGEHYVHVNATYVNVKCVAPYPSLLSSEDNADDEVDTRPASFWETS

| SMILES | inhibition [1] | inhibition [2] | inhibition [3] | inhibition [4] | inhibition [5] | inhibition [6] | inhibition [7] | inhibition [8] | inhibition [9] | inhibition [10] | inhibition [11] |
| --- | --- | --- | --- | --- | --- | --- | --- | --- | --- | --- | --- |
| Oc1n[nH]c2nnc(-c3c(-c4ccccc4)nn4ccccc34)cc12 | 4.83% | 4.52% | -2.01% | 0.31% | -3.22% | 4.74% | 6.74% | -2.37% | 3.42% | -2.36% | 0.47% |
| Nc1n[nH]c2nnc(-c3c(-c4ccccc4)nn4ccccc34)cc12 | 5.04% | 4.67% | 34.2% | 2.16% | -4.59% | 2.31% | 10.3% | 2.28% | 27.3% | 1.29% | 26.2% |
